# According to US10407467B2, “Polymyxin derivatives and their use in combination therapy together with different antibiotics” (priority 2013, dated 2019):
# Bridge positions count the residues as written; N and C are the ends. Square brackets hold non-standard residues; d marks the D form. Peptide text beside a SMILES is read from it. ξ: configuration not given here. Thr(3ξ) = CC(O)[C@H](N)C(=O)O; Dab = NCC[C@H](N)C(=O)O; GABA = NCCCC(=O)O
# Assays:
# [1] = rats, 8 mg/kg BID regimen, seven days, compared to Colistin at the same dose regimen
# Experimental: After one week acclimatisation, male Sprague-Dawley rats were surgically prepared with a jugular cannula and were housed individually, as required, either in pre-assigned housing cages or metabolic cages. Colistin and the Example Compounds were prepared in saline.
# Compounds were introduced via the jugular cannula twice a day 7 hours apart for seven days. Each dose was increased progressively for three days up to the top dose that was then administered until termination of the study. Twenty-four hour urine collection (on ice) was performed at pre-dose and on days 4 and 7. The dose regimen is set out in Table 10 below.
# The doses in the table are indicated in mg drug base/kg (free base).
# The activity in urine of the N-acetyl-beta-D-glucosaminidase (NAG) was determined spectrophotometrically using the NAG assay kit from Roche Applied Science. Biomarkers of kidney injury were determined using the Kidney Injury Panel II from the Multi-Spot® Assay System (Meso Scale Discovery).
# Klebsiella pneumoniae [2] = assay: MIC, compound in combination with a second agent (broth microdilution); type: cell-based
# How it was run: (§1)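 Equal-mass combos (compound in TFA or sulphate salt form plus second agent); direct colony suspension, 0.5 McFarland; duplicate wells; MIC expressed as summed concentration of both drugs.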
# Pseudomonas aeruginosa [3] = assay: MIC, sole activity (no second agent); type: cell-based
# How it was run: (§2)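 Inoculum: direct colony suspension (18-24 h MH agar), 0.5 McFarland. Medium: cation-adjusted MHB. Up to 4 strains/species; reported relative to Polymyxin B.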
# Escherichia coli [4] = assay: MIC, sole activity (no second agent); type: cell-based
# How it was run: as §2
# Klebsiella pneumoniae [5] = assay: MIC, sole activity (no second agent); type: cell-based
# How it was run: as §2
# [6] = system: Klebsiella pneumoniae ATCC10031
# Experimental: At 1 h, the CFU count was determined from 5 mice and the remaining mice (five per group) were treated with a subcutaneous injection of the drug at +1 and 6 hr post-infection.
# Twenty-four hours after infection, the mice were euthanized humanely. The muscle of the right thigh of each animal was harvested, homogenized, serially diluted and plated on Brain Heart Infusion agar+0.5% charcoal (w/v) for CFU determination. Decrease of the total CFU of right thigh as compared to control counts at 24 h post-infection was determined for each dose group.
# HK-2 cell line = assay: In vitro renal cell toxicity assay (resazurin reduction); type: cell-based, human; settings: HK-2 cells, 24 h, resazurin reduction; mean values of up to 6 independent studies
# Pseudomonas aeruginosa [7] = assay: MIC, compound in combination with a second agent (broth microdilution); type: cell-based
# How it was run: as §1
# Escherichia coli [8] = assay: as above; type: cell-based
# How it was run: as §1
# Acinetobacter baumannii [9] = assay: as above; type: cell-based
# How it was run: as §1
# Acinetobacter baumannii [10] = assay: MIC, sole activity (no second agent); type: cell-based; settings: Second Agent none (Table 7B, by row order)
# How it was run: as §2
# [11] = 1:1 (wt:wt) combination with Rifampicin, MIC = total drug concentration, strain ATCC-BAA-2146
# [12] = 1:1 (wt:wt) combination with Rifampicin, MIC = total drug concentration, strain CCUG-59348
# [13] = 1:1 (wt:wt) combination with Rifampicin, MIC = total drug concentration, strain NCTC 13438
# [14] = 1:1 combination with Ciprofloxacin (by row order), total drug concentration
# [15] = 1:1 combination with Tigecycline, total drug concentration
# [16] = 1:1 combination with Ciprofloxacin, total drug concentration
# [17] = 1:1 combination with Vancomycin, total drug concentration
# [18] = Ratio of Compound to Rifampicin 1:1, total drug concentration
# [19] = Ratio of Compound to Rifampicin 1:3, total drug concentration
# [20] = Ratio of Compound to Rifampicin 3:1, total drug concentration
# [21] = Second Agent none (Table 7B, by row order)
compound,measurement,setting,value
"CC(C)C[C@@H]1NC(=O)[C@@H](Cc2ccccc2)NC(=O)[C@H](CCN)NC(=O)[C@@H](NC(=O)[C@H](CCN)NC(=O)[C@@H](NC(=O)CCCN)C(C)O)CCNC(=O)[C@H](C(C)O)NC(=O)[C@H](CCN)NC(=O)[C@H](CCN)NC1=O (stereo partly drawn) [Example 4, 4-Aminobutanoyl polymyxin B nonapeptide] (H-[GABA][Thr(3ξ)][Dab][Dab][Dab][dF]L[Dab][Dab][Thr(3ξ)]; lactam 4-C)","levels of the renal biomarkers NAG, albumin and cystatin C in urine",[1],significantly reduced levels
same,MIC K. pneumoniae ATCC-BAA-2146,Klebsiella pneumoniae [2]; [11],2 micrograms/mL
same,MIC K. pneumoniae CCUG-59348,Klebsiella pneumoniae [2]; [12],16 micrograms/mL
same,MIC K. pneumoniae NCTC 13438,Klebsiella pneumoniae [2]; [13],0.5 micrograms/mL
same,MIC P. aeruginosa ATCC 27853,"Pseudomonas aeruginosa [3]; in the absence of Rifampicin, strain ATCC27853",0.25 micrograms/mL
same,MIC P. aeruginosa ATCCCRM-9027,"Pseudomonas aeruginosa [3]; in the absence of Rifampicin, strain ATCCCRM-9027",0.125 micrograms/mL
same,MIC E. coli ATCC25922,"Escherichia coli [4]; in the absence of Rifampicin, strain ATCC25922",2 micrograms/mL
same,MIC E. coli NCTC9001,"Escherichia coli [4]; in the absence of Rifampicin, strain NCTC9001",8 micrograms/mL
same,MIC K. pneumoniae ATCC 4352,"Klebsiella pneumoniae [5]; in the absence of Rifampicin, strain ATCC 4352",1 micrograms/mL
same,MIC K. pneumoniae ATCC-BAA2146,"Klebsiella pneumoniae [5]; in the absence of Rifampicin, strain ATCC-BAA2146",>32 micrograms/mL
same,MIC K. pneumoniae CCUG-59348,"Klebsiella pneumoniae [5]; in the absence of Rifampicin, strain CCUG-59348",>32 micrograms/mL
same,MIC K. pneumoniae NCTC-13438,"Klebsiella pneumoniae [5]; in the absence of Rifampicin, strain NCTC-13438",>32 micrograms/mL
same,reduction in bacterial counts,"[6]; 10 mg/kg/day, neutropenic mice thigh infection",approx. 2 log10
Colistin [reference compound],IC50 HK-2 cells,HK-2 cell line,28 µg/mL
same,MIC P. aeruginosa ATCC 27853,"Pseudomonas aeruginosa [7]; 1:1 (wt:wt) combination with Rifampicin, MIC = total drug concentration, strain ATCC 27853",0.25 micrograms/mL
same,MIC P. aeruginosa ATCC CRM-9027,"Pseudomonas aeruginosa [7]; 1:1 (wt:wt) combination with Rifampicin, MIC = total drug concentration, strain ATCC CRM-9027",1 micrograms/mL
same,MIC P. aeruginosa ATCC-47,"Pseudomonas aeruginosa [7]; 1:1 (wt:wt) combination with Rifampicin, MIC = total drug concentration, strain ATCC-47",2 micrograms/mL
same,MIC P. aeruginosa CCUG 59626,"Pseudomonas aeruginosa [7]; 1:1 (wt:wt) combination with Rifampicin, MIC = total drug concentration, strain CCUG 59626",0.5 micrograms/mL
same,MIC P. aeruginosa ATCC 27853,Pseudomonas aeruginosa [7]; [14],0.125 micrograms/mL
same,MIC P. aeruginosa CCUG 59626,Pseudomonas aeruginosa [7]; [14],1 micrograms/mL
same,MIC P. aeruginosa CCUG 59626,Pseudomonas aeruginosa [7]; [15],1 micrograms/mL
same,MIC P. aeruginosa CCUG 59626,"Pseudomonas aeruginosa [7]; P. aeruginosa CCUG 59626, 1:1 combination with Meropenem, total drug concentration",1 micrograms/mL
same,MIC E. coli ATCC25922,"Escherichia coli [8]; 1:1 (wt:wt) combination with Rifampicin, MIC = total drug concentration, strain ATCC25922",0.25 micrograms/mL
same,MIC E. coli NCTC9001,"Escherichia coli [8]; 1:1 (wt:wt) combination with Rifampicin, MIC = total drug concentration, strain NCTC9001",0.25 micrograms/mL
same,MIC E. coli ATCC25922,Escherichia coli [8]; [16],≤0.06 micrograms/mL
same,MIC E. coli CCUG 59342,Escherichia coli [8]; [16],1 micrograms/mL
same,MIC E. coli NCTC9001,Escherichia coli [8]; [16],≤0.06 micrograms/mL
same,MIC E. coli NCTC9001,Escherichia coli [8]; [15],4 micrograms/mL
same,MIC E. coli NCTC9001,Escherichia coli [8]; [17],4 microgram/mL
same,MIC E. coli NCTC9001,"Escherichia coli [8]; E. coli NCTC9001, 1:1 combination with Meropenem, total drug concentration",0.25 micrograms/mL
same,MIC K. pneumoniae ATCC 4352,"Klebsiella pneumoniae [2]; 1:1 (wt:wt) combination with Rifampicin, MIC = total drug concentration, strain ATCC 4352",0.5 micrograms/mL
same,MIC K. pneumoniae ATCC-BAA-2146,Klebsiella pneumoniae [2]; [11],1 micrograms/mL
same,MIC K. pneumoniae CCUG-59348,Klebsiella pneumoniae [2]; [12],1 micrograms/mL
same,MIC K. pneumoniae NCTC 13438,Klebsiella pneumoniae [2]; [13],0.5 micrograms/mL
same,MIC K. pneumoniae ATCC 4352,Klebsiella pneumoniae [2]; [14],≤0.06 micrograms/mL
same,MIC K. pneumoniae ATCC BAA-1706,Klebsiella pneumoniae [2]; [14],1 micrograms/mL
same,MIC K. pneumoniae CCUG 59348,Klebsiella pneumoniae [2]; [16],32 micrograms/mL
same,MIC K. pneumoniae NCTC 13442,Klebsiella pneumoniae [2]; [16],1 micrograms/mL
same,MIC K. pneumoniae CCUG 59348,Klebsiella pneumoniae [2]; [15],>32 micrograms/mL
same,MIC K. pneumoniae NCTC 13442,Klebsiella pneumoniae [2]; [15],4 micrograms/mL
same,MIC K. pneumoniae CCUG 59348,Klebsiella pneumoniae [2]; [17],>32 microgram/mL
same,MIC K. pneumoniae CCUG 59626,Klebsiella pneumoniae [2]; [17],2 microgram/mL
same,MIC K. pneumoniae NCTC 13442,Klebsiella pneumoniae [2]; [17],8 microgram/mL
same,MIC K. pneumoniae ATCC BAA-1706,"Klebsiella pneumoniae [2]; K. pneumoniae ATCC BAA-1706, 1:1 combination with Meropenem, total drug concentration",4 micrograms/mL
same,MIC K. pneumoniae CCUG 59348,"Klebsiella pneumoniae [2]; K. pneumoniae CCUG 59348, 1:1 combination with Meropenem, total drug concentration",>32 micrograms/mL
same,MIC K. pneumoniae NCTC 13442,"Klebsiella pneumoniae [2]; K. pneumoniae NCTC 13442, 1:1 combination with Meropenem, total drug concentration",4 micrograms/mL
same,MIC K. pneumoniae ATCC-BAA-2146,Klebsiella pneumoniae [2]; [18],1 micrograms/mL
same,MIC K. pneumoniae CCUG-59348,Klebsiella pneumoniae [2]; [18],2 micrograms/mL
same,MIC K. pneumoniae NCTC 13438,Klebsiella pneumoniae [2]; [18],2 micrograms/mL
same,MIC K. pneumoniae ATCC-BAA-2146,Klebsiella pneumoniae [2]; [19],4 micrograms/mL
same,MIC K. pneumoniae CCUG-59348,Klebsiella pneumoniae [2]; [19],4 micrograms/mL
same,MIC K. pneumoniae NCTC 13438,Klebsiella pneumoniae [2]; [19],2 micrograms/mL
same,MIC K. pneumoniae ATCC-BAA-2146,Klebsiella pneumoniae [2]; [20],1 micrograms/mL
same,MIC K. pneumoniae CCUG-59348,Klebsiella pneumoniae [2]; [20],1 micrograms/mL
same,MIC K. pneumoniae NCTC 13438,Klebsiella pneumoniae [2]; [20],1 micrograms/mL
same,MIC A. baumannii ATCC BAA-747,"Acinetobacter baumannii [9]; 1:1 (wt:wt) combination with Rifampicin, MIC = total drug concentration, strain ATCC BAA-747",0.25 micrograms/mL
same,MIC A. baumannii CCUG57249,"Acinetobacter baumannii [9]; 1:1 (wt:wt) combination with Rifampicin, MIC = total drug concentration, strain CCUG57249",0.25 micrograms/mL
same,MIC A. baumannii NCTC 13423,"Acinetobacter baumannii [9]; 1:1 (wt:wt) combination with Rifampicin, MIC = total drug concentration, strain NCTC 13423",0.125 micrograms/mL
same,MIC A. baumannii NCTC 13424,"Acinetobacter baumannii [9]; 1:1 (wt:wt) combination with Rifampicin, MIC = total drug concentration, strain NCTC 13424",0.25 micrograms/mL
same,MIC A. baumannii NCTC 13424,Acinetobacter baumannii [9]; [14],0.5 micrograms/mL
same,MIC P. aeruginosa CCUG 59626,"Pseudomonas aeruginosa [3]; P. aeruginosa CCUG 59626, second agent none",0.5 micrograms/mL
same,MIC P. aeruginosa ATCC 27853,Pseudomonas aeruginosa [3]; [21],0.25 micrograms/mL
same,MIC P. aeruginosa CCUG 59626,Pseudomonas aeruginosa [3]; [21],0.5 micrograms/mL
same,MIC P. aeruginosa CCUG 59626,Pseudomonas aeruginosa [3]; Second Agent none (Table 7C),0.5 micrograms/mL
same,MIC E. coli NCTC9001,"Escherichia coli [4]; E. coli NCTC9001, second agent none",1 micrograms/mL
same,MIC E. coli NCTC9001,Escherichia coli [4]; Second Agent none (Table 7A),1 microgram/mL
same,MIC E. coli ATCC25922,Escherichia coli [4]; Second Agent none (Table 7B),1 micrograms/mL
same,MIC E. coli CCUG 59342,Escherichia coli [4]; Second Agent none (Table 7B),0.5 micrograms/mL
same,MIC E. coli NCTC9001,Escherichia coli [4]; Second Agent none (Table 7B),2 micrograms/mL
same,MIC E. coli NCTC9001,Escherichia coli [4]; Second Agent none (Table 7C),1 micrograms/mL
same,MIC K. pneumoniae ATCC BAA-1706,"Klebsiella pneumoniae [5]; K. pneumoniae ATCC BAA-1706, second agent none",2 micrograms/mL
same,MIC K. pneumoniae CCUG 59348,"Klebsiella pneumoniae [5]; K. pneumoniae CCUG 59348, second agent none",32 micrograms/mL
same,MIC K. pneumoniae NCTC 13442,"Klebsiella pneumoniae [5]; K. pneumoniae NCTC 13442, second agent none",2 micrograms/mL
same,MIC K. pneumoniae CCUG 59348,Klebsiella pneumoniae [5]; Second Agent none (Table 7A),32 microgram/mL
same,MIC K. pneumoniae CCUG 59626,Klebsiella pneumoniae [5]; Second Agent none (Table 7A),0.5 microgram/mL
same,MIC K. pneumoniae NCTC 13442,Klebsiella pneumoniae [5]; Second Agent none (Table 7A),2 microgram/mL
same,MIC K. pneumoniae CCUG 59348,Klebsiella pneumoniae [5]; Second Agent none (Table 7B),32 micrograms/mL
same,MIC K. pneumoniae NCTC 13442,Klebsiella pneumoniae [5]; Second Agent none (Table 7B),2 micrograms/mL
same,MIC K. pneumoniae ATCC 4352,Klebsiella pneumoniae [5]; [21],0.5 micrograms/mL
same,MIC K. pneumoniae ATCC BAA-1706,Klebsiella pneumoniae [5]; [21],2 micrograms/mL
same,MIC K. pneumoniae CCUG 59348,Klebsiella pneumoniae [5]; Second Agent none (Table 7C),32 micrograms/mL
same,MIC K. pneumoniae NCTC 13442,Klebsiella pneumoniae [5]; Second Agent none (Table 7C),2 micrograms/mL
same,MIC A. baumannii NCTC 13424,Acinetobacter baumannii [10],0.5 micrograms/mL
same,Mean log10 CFU reduction vs. control,"[6]; Total daily dosage 10 mg/Kg (sulfate salt), subcutaneous BID",2.60 log10 CFU
